Drawing on patent US20170035884A1, “AQUEOUS GELLING COMPOSITIONS OF SOLUBLE ACTIVE PHARMACEUTICAL PEPTIDES PROVIDING MODIFIED RELEASE” (Ipsen Pharma S.A.S., priority 2012, published 2017), this text covers solubility for two compounds.

A word on the solubility: it is the dissolved amount per volume that the medium holds.

Counter-ions that a name gives are not always drawn. Like-named read-outs stand apart in the source and are kept apart here.

This data set is described as follows: Solubility testing of peptide 1 salts in gelling compositions (HPLC after filtration). The format is physicochemical. On the procedure:
The solubility of the peptide 1 salts in the gelling compositions of Table 1 was evaluated using HPLC analysis after filtration.

`CC(=O)NC(CCCNC(=N)N)C(=O)N[C@H]1CSSC[C@@H](C(N)=O)NC(=O)[C@H](Cc2c[nH]c3ccccc23)NC(=O)[C@H](CCCNC(=N)N)NC(=O)[C@@H](Cc2ccccc2)NC(=O)[C@H](Cc2cnc[nH]2)NC(=O)[C@@H](C)NC1=O` (stereo partly drawn) [peptide 1 acetate salt, Ac-Arg-c(Cys-D-Ala-His-D-Phe-Arg-Trp-Cys)-NH2]: the solubility is at least 100 mg/mL (38% glycerol gelling composition, in 38% glycerol, read-out: solubility) and at least 100 mg/mL (in 32% PEG 400). Regarding `CC(=O)NC(CCCNC(=N)N)C(=O)N[C@H]1CSSC[C@@H](C(N)=O)NC(=O)[C@H](Cc2c[nH]c3ccccc23)NC(=O)[C@H](CCCNC(=N)N)NC(=O)[C@@H](Cc2ccccc2)NC(=O)[C@H](Cc2cnc[nH]2)NC(=O)[C@@H](C)NC1=O` (stereo partly drawn) [peptide 1 heptanoate salt, Ac-Arg-c(Cys-D-Ala-His-D-Phe-Arg-Trp-Cys)-NH2], where the note is “in 32% PEG 400”, the solubility was 28.1 mg/mL.
